Here are results for one compound from patent US20250205316A1, “COLLOIDAL FIBRIN NANOPARTICLE COMPOSITIONS AND USES” (NORTH CAROLINA STATE UNIVERSITY, priority 2023, published 2025).

One test deals with HUVECs. The experiment in a line: HUVEC morphology and attachment on tazarotene-loaded thin films. It is filed as cell-based, human. Here is the method:
The effects of tazarotene released from bulk fibrin gels on individual cellular morphology was determined through the low-density culture of HUVECs on thin films of loaded fibrin gels. Fibrin gels with varying concentrations of bulk tazarotene incorporated were allowed to polymerize between two clean glass coverslips for 1 hour, in order to form thin films. Thin films of 80 μL were made using 2 mg/ml human fibrinogen (Enzyme Research Laboratories), HEPES buffer (25 mM), and 0.5 U/ml human thrombin. Upon removal of one glass coverslip, the remaining glass and attached gel were placed within the well of a 12-well plate and rinsed with PBS. HUVECs (15,000 cells/well) were cultured for 16 hours, at which point they were fixed and stained. Images of cells were captured at 10× using an EVOS FL Auto Imaging System, with at least 5 images taken per thin film. In order to validate the nanoparticle release of tazarotene from FBNs, 80 μL FBN gel (330 M particles/mL) thin films were formed with different relative ratios of tazarotene-loaded to unloaded FBNs. All other elements of the procedure were the same.

The subject of a further test is HUVECs and HLFs. As to the kind of experiment: Microfluidic vasculogenesis assay with free tazarotene. It is filed as cell-based, human. As to the method: The effects of tazarotene dosage on vascular network formation were investigated through the use of an established microfluidic vasculogenesis model (FIG. 12A). HUVECs and HLFs were embedded in 2 mg/mL human fibrin gels made 25 mM HEPES buffer and 0.5 U/mL thrombin. Media channels in the microdevice (FIG. 12A) were filled with HUVEC media supplemented with free tazarotene. Daily media changes and brightfield imaging were completed until cells were fixed with 4% paraformaldehyde at 1 week after seeding. Cells were permeabilized with 0.3% Triton X-100 (Sigma), immunostained with PEKAM-1 antibody (ThermoFisher), and stained with phalloidin (Invitrogen) and DAPI (Invitrogen) in order to visualize networks of both HUVECs and HLFs. Imaging was performed using a confocal microscope with a 10× objective. At least 3 devices were imaged for each experimental group and 3 images were taken per device. ImageJ was used to quantify vascular network characteristics (average segment length, average segment width, average number of branch points, and total endothelial area).

[1] abbreviates: fibrin gel thin films bulk loaded with tazarotene, 16 hours.

Where two headings read alike, the source gives them in different places.

`CCOC(=O)c1ccc(C#Cc2ccc3c(c2)C(C)(C)CCS3)nc1` [tazarotene]: the “concentration with the most cell spreading” value in the test on HUVECs (setting [1]) was 200 nM. The “effect on cellular attachment” value in the test on HUVECs (setting [1]) is “no significant effect”. For the same compound, in the test on HUVECs (with increasing concentrations), the cell circularity result is “less circularity”. For the same compound, in the test with HUVECs (with increasing concentrations), the cell perimeter entry is recorded as “greater perimeter”. In addition, the “average network segment width” value with HUVECs and HLFs is 36±11 μm; in the test on HUVECs and HLFs (2 μM free tazarotene, 1 week), 23±4 μm; with HUVECs and HLFs (200 μM free tazarotene, 1 week), 31±7 μm. For the same compound, the average segment length with HUVECs and HLFs (20 nM free tazarotene, 1 week) is given as 218±54 μm; with HUVECs and HLFs (2 μM free tazarotene, 1 week), 226±40 μm. In addition, the endothelial network area was 130167±61886 μm^2 in the test on HUVECs and HLFs (2 μM free tazarotene, 1 week); 206,763±51,803 μm^2 in the test on HUVECs and HLFs (20 μM free tazarotene, 1 week); 240,770±44,210 μm^2 in the test with HUVECs and HLFs (200 μM free tazarotene, 1 week); 230,087±51,803 μm^2 in the test with HUVECs and HLFs (2000 μM free tazarotene, 1 week). For the same compound, the branch points result in the test on HUVECs and HLFs (across tazarotene concentrations) is “No significant differences”.
